In assay [1] the target is T1, glutathione-S-transferase (GST) tagged LXRbeta LBD (ligand binding domain) (Homo sapiens, UniProt P55055).
T1 construct: purchased Invitrogen pv4658.pps
T1 sequence (P55055 222-460 limits assumed): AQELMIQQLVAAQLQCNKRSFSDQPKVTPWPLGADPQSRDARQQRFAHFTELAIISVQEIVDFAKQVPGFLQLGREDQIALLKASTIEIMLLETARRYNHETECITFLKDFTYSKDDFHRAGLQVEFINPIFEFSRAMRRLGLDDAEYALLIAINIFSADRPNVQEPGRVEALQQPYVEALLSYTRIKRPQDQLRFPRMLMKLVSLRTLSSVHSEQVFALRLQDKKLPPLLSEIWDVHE
The assay can be described thus: LanthaScreen TR-FRET Liver X Receptor Coactivator Assay, LXR beta. The format is biochemical. The following applies: for Emax: efficacy (Emax) in relation to reference dual agonist T0901317, read-out: LXR beta actiivty at max dose (%); for EC50: potency (Inflection Point) of compound-induced co-activator recruitment, TR-FRET, read-out: LXR beta IP. In short, it runs like this:
(§1)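 Coactivator recruitment format: receptor LBD exposed to compounds, detection via Tb-antibody/fluorescein-peptide pair, room-temperature incubation, TR-FRET signal on a filter instrument.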
Background: Time-resolved FRET reads energy transfer from a long-lived donor to a nearby acceptor.

Assay [2] addresses T2, glutathione-S-transferase (GST) tagged LXRalpha LBD (ligand binding domain) (Homo sapiens, UniProt Q13133).
T2 construct: purchased Invitrogen pv4655
T2 sequence (Q13133 209-447 limits assumed): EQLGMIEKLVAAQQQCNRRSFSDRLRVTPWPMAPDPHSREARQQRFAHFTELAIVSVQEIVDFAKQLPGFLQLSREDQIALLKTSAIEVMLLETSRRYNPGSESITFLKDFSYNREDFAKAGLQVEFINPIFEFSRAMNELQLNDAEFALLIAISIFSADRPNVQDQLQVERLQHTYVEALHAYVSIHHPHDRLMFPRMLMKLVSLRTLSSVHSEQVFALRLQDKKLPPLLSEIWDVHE
The assay can be described thus: LanthaScreen TR-FRET Liver X Receptor Coactivator Assay, LXR alpha. The format is biochemical. As to conditions: for Emax: efficacy (Emax) in relation to reference dual agonist T0901317, read-out: LXR alpha actiivty at max dose (%). The procedure, abridged: as §1

With `CN(C)C(=O)c1ccc(CCCC2CC3(CCN(C(=O)C(C)(C)c4ccccc4)CC3)C2)cc1Cl` [Example 16-3, 2-chloro-N,N-dimethyl-4-(3-(7-(2-methyl-2-phenylpropanoyl)-7-azaspiro[3.5]nonan-2-yl)propyl)benzamide], the Emax came to 108% in assay [1] and 50% in assay [2]. In addition, the EC50 in assay [1] was 56 nM; in assay [2] (potency (Inflection Point) of compound-induced co-activator recruitment, TR-FRET, read-out: LXR alpha IP), 423 nM.

As for `CN(C)C(=O)c1ccc(S(=O)(=O)CCCCC2CCN(C(=O)C(C)(C)c3ccccc3)CC2)cc1Cl` [Example 22-1, 2-chloro-N,N-dimethyl-4-(4-(1-(2-methyl-2-phenylpropanoyl)piperidin-4-yl)butylsulfonyl)benzamide], the figures for the Emax in assay [1] and in assay [2] were 57% and 2%, respectively. In assay [1], the EC50 came out at 1990 nM. Besides, in assay [2] (potency (Inflection Point) of compound-induced co-activator recruitment, TR-FRET), the “LXR alpha IP (nM)” value was “No IP”.

Values taken from patent US10894775B2, “Piperidine derivatives as liver X receptor beta agonists, compositions, and their use” (Merck Sharp & Dohme Corp., priority 2016, dated 2021).
